# Assay results taken from PMC7844538, “Peptide-Conjugated Phosphorodiamidate Morpholino Oligomers Retain Activity against Multidrug-Resistant Pseudomonas aeruginosa In Vitro and In Vivo” (mBio, 2021).
# How the values were obtained:
# P. aeruginosa MB447 = assay: MIC against XDR strain MB447; assay type: cell-based, Pseudomonas aeruginosa; conditions: medium not stated
# Description: MIC assays of PPMOs were determined according to the Clinical and Laboratory Standards Institute (CLSI) broth microdilution method ([29]), using the method previously described ([14]). The assays were performed in 96-well tissue culture plates (Thermo Fisher Scientific, Waltham, MA). All reagents were analytical grade and were obtained from Sigma-Aldrich (St. Louis, MO), Acros Organics (Geel, Belgium), UT Southwestern Campus Pharmacy, or Thermo Fisher Scientific (Waltham, MA). Morpholinopropanesulfonic acid (MOPS) minimal medium was prepared as previously described ([30], [31]).
# [1] = tested on: P. aeruginosa strain MB447; assay: Acute pneumonia mouse model with XDR strain, survival; assay type: in vivo, Pseudomonas aeruginosa in BALB/c mice; conditions: for survival at day 4: 15 mg/kg intratracheal at 15 min, then intranasal at 24 h (legend: 6 h); for Median survival: 15 mg/kg, two treatments, Kaplan-Meier
# Description: To test whether PPMOs retained in vivo activity in an XDR strain, we utilized the AcpP-RXR(5′) PPMO in the acute pneumonia model using XDR P. aeruginosa strain MB447, a carbapenem-resistant bloodstream isolate. […] Mice were infected intratracheally followed by intratracheal treatment 15 min postinfection with either 15 mg/kg of AcpP-RXR(5′), scrambled control PPMO (Scr), PBS, 15 mg/kg of meropenem, or 15 mg/kg of tobramycin, and the bacterial burden was determined at 24 h postinfection.
# Mice were infected intratracheally with P. aeruginosa strain MB447 (∼10^7 CFU/mouse). (A) Mice were treated intratracheally 15 min postinfection with 15 mg/kg/24 h of AcpP-RXR(5′) and the corresponding scrambled PPMO, tobramycin, and meropenem and were euthanized at 24 h, and lung tissues were processed as previously described. All samples were plated for viable CFU on PIA. Each symbol represents the value for a single mouse. Error bars represent SEM. Statistical differences were determined using one-way ANOVA and indicated as follows: ****, P < 0.0001; **, P < 0.01; *, P < 0.05. (B) Mice were treated intratracheally 15 min postinfection and intranasally at 6 h postinfection (a total of two treatments) with the same compounds and doses. Mice were monitored for 4 days postinfection.
# P. aeruginosa strains PA103, PA103 P1-lux, and MB447 were grown on Pseudomonas isolation agar (PIA) for 16 to 18 h at 37°C and suspended in PBS to an optical density at 600 nm (OD600) of 0.5, corresponding to ∼10^9 CFU/ml. Inocula were adjusted spectrophotometrically to obtain the desired sublethal challenge dose in a volume of 25 μl. Six- to 8-week-old female BALB/c mice (Jackson Laboratories, Bar Harbor, ME) were anesthetized by intraperitoneal injection of 0.2 ml of a mixture of ketamine (6.7 mg/ml) and xylazine (1.3 mg/ml). Mice were infected by noninvasive intratracheal instillation of dilutions of P. aeruginosa strain as indicated ([34]).
# P. aeruginosa PA103 = assay: Acute pneumonia mouse model, intraperitoneal PPMO alone or with tobramycin, survival; assay type: in vivo, Pseudomonas aeruginosa in BALB/c mice; conditions: intraperitoneal at 6, 12 and 24 h; Kaplan-Meier
# Description: Mice were treated by intraperitoneal injection of RpsJ-RXR(3′) (15 mg/kg), tobramycin (15 mg/kg), scrambled PPMO (15 mg/kg) alone or in combination (scrambled PPMO plus tobramycin or RpsJ PPMO plus tobramycin) at 6, 12, and 24 h for a total of three treatments after intratracheal infection with a […] dose of P. aeruginosa PA103. Mice were monitored for up to 4 days postinfection. […] Mice treated with RpsJ-RXR(3′) or tobramycin had 50 to 60% increased survival compared to PBS or scrambled control, respectively.
# FIG 4 PPMOs work in concert with traditional antibiotics to improve survival in acute lung model of infection. […] Mice were monitored for 4 days postinfection. Results are represented by Kaplan-Meier survival curves and were analyzed by log rank test (log rank test, RpsJ versus PBS, P < 0.001; RpsJ versus Scr, P < 0.05; RpsJ versus RpsJ plus tobramycin, P < 0.05; Scr versus Scr plus tobramycin, P = 0.1778. Median survival: PBS, 36 h; Scr, 48 h; RpsJ, tobramycin, and combination treatments, undefined). […]
# Mice were infected as described above and treated either intraperitoneally or intranasally with 15 mg/kg/treatment of PPMO or corresponding controls as indicated. Animals were treated at 6, 12, or 24 h postinfection, with a total of three doses and were monitored for survival up to 4 days postinfection.
# [2] = tested on: P. aeruginosa PAO1 biofilm; assay: Established biofilm on MBEC pegs, viability (resazurin, CFU); assay type: cell-based, Pseudomonas aeruginosa; conditions: PAO1, 24 h biofilm, dosed at 24, 32, 40 h, read at 48 h; tobramycin 0.625 µg/ml, PPMO 0.25 µM (legend 2.5 μM)
# Description: PAO1 biofilms were established on MBEC pegs for 24 h and then treated either with 0.625 μg/ml tobramycin, 0.25 μg/ml piperacillin/tazobactam (Pip/Tazo), 2.5 μM AcpP-RXR(3′), 2.5 μM RpsJ-RXR(3′) or with a combination of PPMO and antibiotic at 24, 32, and 40 h. […]
# The viability and metabolic state of biofilm-associated cells were determined using resazurin dye ([17]). […] This time point was previously optimized based on the time needed for the untreated control cells to reach maximum fluorescence. The plates were read at an excitation of 530 nm and emission of 590 nm on a Synergy BioTek plate reader. Viable CFU from the biofilms were also determined by rinsing MBEC pegs in PBS three times to remove planktonic bacteria, followed by cutting the peg off the base with a hot scalpel and placing it in a 14 ml Falcon tube containing 1 ml PBS. […]
# [3] = tested on: P. aeruginosa PAO1 biofilm; assay: Established biofilm on MBEC pegs, crystal violet (total biomass); assay type: cell-based, Pseudomonas aeruginosa; conditions: PAO1, 24 h biofilm, dosed at 24, 32, 40 h, read at 48 h; tobramycin 0.625 µg/ml, piperacillin-tazobactam 0.25 µg/ml, PPMO 0.25 µM (legend 2.5 μM)
# Description: We previously reported that treatment with PPMO alone was effective in both preventing and decreasing established P. aeruginosa biofilm in vitro ([14]). Here, we aimed to determine whether combining a PPMO with a traditional antibiotic (that also had minimal biofilm-inhibitory activity on its own) could enhance biofilm eradication compared to either drug alone. Biofilms were established in minimal biofilm eradication concentration (MBEC) plates by growing P. aeruginosa PAO1 at 37°C. At 24 h postinoculation, lids with established biofilm were moved to new 96-well plates containing fresh media with either antibiotic only (0.625 µg/ml tobramycin or 0.25 µg/ml piperacillin-tazobactam), PPMO only [0.25 µM either AcpP-RXR(3′) or RpsJ-RXR(3′)], or PPMO plus antibiotic as indicated. We hypothesized that the combination of antibiotics and PPMOs targeting a similar cellular process, such as bacterial cell wall (AcpP and piperacillin-tazobactam) or protein synthesis (RpsJ and tobramycin) would enhance biofilm eradication.
# FIG 1 PPMOs in combination with traditional antibiotics display enhanced activity and reduce established P. aeruginosa strain PAO1 biofilm. […] Statistical differences were determined by one-way ANOVA and indicated as follows: ***, P < 0.0001; **, P < 0.001; *, P < 0.05; n.s., not significant. […]
Compound,MIC of strain MB447 against antibiotic (P. aeruginosa MB447) [µM],survival at day 4 [1] [%],Median survival [1],Median survival (P. aeruginosa PA103),decrease of biofilm cell viability compared to no treatment [2] [%],reduction of established biofilm mass compared to untreated [3]
C[C@@H](O)[C@H]1C(=O)N2C(C(=O)O)=C(S[C@@H]3CN[C@H](C(=O)N(C)C)C3)[C@H](C)[C@H]12 [meropenem],32,0,34 h,–,–,–
NC[C@H]1O[C@H](O[C@H]2[C@H](O)[C@@H](O[C@H]3O[C@H](CO)[C@@H](O)[C@H](N)[C@H]3O)[C@H](N)C[C@@H]2N)[C@H](N)C[C@@H]1O [tobramycin],8,67,undefined,undefined,50,50%
piperacillin-tazobactam,–,–,–,–,–,no impact on established biofilm
